The text below walks through data of ChEMBL document CHEMBL4613284, “A Class of Potent Inhibitors of the HIV-1 Nucleocapsid Protein Based on Aminopyrrolic Scaffolds” (ACS Med Chem Lett, 2020).

pIC50, pKd: −log10 of the molar value. Active and inactive are the calls of the source. The rule behind the calls is not given here.

The target of data set [1] is cTAR DNA. Kind of data set: Binding affinity to HIV1 nucleocapsid protein (11 to 55 residues)-targeted Rh6G-5'-cTAR DNA-3'-Dabcyl assessed as inhibition of NC-induced viral Rh6G-5'-cTAR DNA-3'-Dabcyl destabilization by measuring fluorescence intensity up to 60 mins by fluorescence assay. In kind it is nucleic-acid assay, Human immunodeficiency virus 1.
Data set [2] deals with Human immunodeficiency virus 1. The experiment in a line: Antiviral activity against HIV1 3B infected in human MT4 cells assessed as protection against virus-induced cytopathic effect incubated for 5 days by MTT assay. The data set is classed as functional, organism-based. The settings on record: Human immunodeficiency virus 1, 3B, MT4, 120 h.
The target of data set [3] is cTAR DNA. The experiment in a line: Binding affinity to HIV1 fluorescein-labeled-5'-cTAR DNA at cTAR to compound complex stoichiometry ratio of 1:3 using 80 mM NaCl by fluorescence anisotropy assay. In kind it is nucleic-acid assay, Human immunodeficiency virus 1.
The target in data set [4] is cTAR DNA. Kind of data set: Binding affinity to HIV1 fluorescein-labeled-5'-cTAR DNA at cTAR to compound complex stoichiometry ratio of 1:3 using 30 mM NaCl by fluorescence anisotropy assay. In kind it is nucleic-acid assay, Human immunodeficiency virus 1. In general terms: Polarisation of emitted light reports the rotation of a fluorescent probe.
Data set [5] concerns ssDNA. Kind of data set: Competitive binding affinity to HIV1 S3G5 oligonucleotide assessed as apparent equilibrium dissociation constant of NC(11 to 55 residues) to S3G5 oligonucleotide at 20 uM and 20 degreeC by isothermal titration calorimetry (reference value: 0.15 +/- 0.1 microM). The settings on record: Human immunodeficiency virus 1. The data set is classed as nucleic-acid assay. A general note: Isothermal titration calorimetry measures the heat released or taken up as one component is titrated into another.

For data set [6], the system named is ssDNA. The experiment in a line: Competitive binding affinity to HIV1 S3G5 oligonucleotide assessed as apparent equilibrium dissociation constant of NC(11 to 55 residues) to S3G5 oligonucleotide at 5 uM and 20 degreeC by isothermal titration calorimetry (reference value: 0.15 +/ 0.1 microM). Particulars: Human immunodeficiency virus 1. In kind it is nucleic-acid assay.

For data set [7], the system named is cTAR DNA. The experiment in a line: Binding affinity to HIV1 propidium iodide-labeled-5'-cTAR DNA at cTAR to compound complex stoichiometry ratio of 1:3 using 30 mM NaCl by fluorescence anisotropy assay. In kind it is nucleic-acid assay. Particulars: Human immunodeficiency virus 1.
Data set [8] relates to PBS RNA. The experiment in a line: Binding affinity to HIV1 nucleocapsid protein (11 to 55 residues)-targeted Rh6G-5'-(+)-PBS-3'-Dabcyl/(-)-PBS assessed as inhibition of NC-promoted annealing of +/- PBS sequence at 4 uM by spectrofluorimetry analysis relative to control. The settings on record: Human immunodeficiency virus 1. In kind it is nucleic-acid assay.
Data set [9] in a line: Solubility of compound in water. The data set is classed as physicochemical. Particulars: buffer.
In data set [10] the target is ssDNA. The experiment in a line: Competitive binding affinity to HIV1 S3G5 oligonucleotide assessed as equilibrium dissociation constant by isothermal titration calorimetry. In kind it is nucleic-acid assay, Human immunodeficiency virus 1.
Data set [11] concerns PBS RNA. Kind of data set: Inhibition of annealing of HIV1 Rh6G-5'-(+)-PBS-3'-Dabcyl/(-)-PBS at 4 uM by spectrofluorimetry analysis relative to control. In kind it is nucleic-acid assay. Particulars: Human immunodeficiency virus 1.
The test system of data set [12] is cTAR DNA. The experiment in a line: Binding affinity to HIV1 nucleocapsid protein (11 to 55 residues)-targeted Rh6G-5'-cTAR DNA-3'-Dabcyl/dTAR assessed as inhibition of NC-promoted annealing of Rh6G-5'-cTAR DNA-3'-Dabcyl/unlabeled dTAR at 4 uM after 25 hrs by spectrofluorimetry analysis relative to control. The settings on record: Human immunodeficiency virus 1. The data set is classed as nucleic-acid assay.

For data set [13], the system named is PBS RNA. The experiment in a line: Binding affinity to HIV1 propidium iodide-labeled double stranded (-)/(+)-PBS sequence by fluorescence anisotropy assay. The settings on record: Human immunodeficiency virus 1. The data set is classed as nucleic-acid assay.
Data set [14] concerns ssDNA. The experiment in a line: Competitive binding affinity to HIV1 S3G5 oligonucleotide at 20 degreeC by isothermal titration calorimetry. The data set is classed as nucleic-acid assay. Particulars: Human immunodeficiency virus 1.
A short description of data set [15]: Therapeutic index, ratio of CC50 for human U373 cells expressing CD4-CCR5 to IC50 for HIV1 pNL4.3deltaenvLuc-ADA 8 pseudotyped virus infected in human U373-CD4-CCR5 cells. In kind it is toxicity, cell-based. The settings on record: read-out: Ratio CC50/IC50.
Data set [16] has as its system Human immunodeficiency virus 1. The experiment in a line: Binding affinity to HIV1 nucleocapsid protein (11 to 55 residues) assessed as change in fluorescence intensity of Trp37 residue up to 100 uM by fluorescence based analysis.
Data set [17] deals with cTAR DNA. The experiment in a line: Binding affinity to HIV1 fluorescein-labeled-5'-cTAR DNA at cTAR to compound complex stoichiometry ratio of 1:3 using 150 mM NaCl by fluorescence anisotropy assay. In kind it is nucleic-acid assay. The settings on record: Human immunodeficiency virus 1.
Data set [18] is described as follows: Cytotoxicity against human U373 cells expressing CD4-CCR5 assessed as reduction in cell viability incubated for 48 hrs by luciferase assay. The data set is classed as cell-based, U-373MG ATCC. Particulars: U373 MG.
The nature of data set [19]: Cytotoxicity against human MT4 cells assessed as reduction in cell viability incubated for 5 days by MTT assay. In kind it is cell-based.
For data set [20], the system named is cTAR DNA. Kind of data set: Binding affinity to HIV1 nucleocapsid protein (11 to 55 residues)-targeted Rh6G-5'-cTAR DNA-3'-Dabcyl/dTAR assessed as inhibition of NC-promoted annealing of Rh6G-5'-cTAR DNA-3'-Dabcyl/unlabeled dTAR at 0.4 uM by spectrofluorimetry analysis. In kind it is nucleic-acid assay. The settings on record: Human immunodeficiency virus 1.

Data set [21] relates to ssDNA. The experiment in a line: Binding affinity to HIV1 single stranded fluorescein-labeled-5'-S3G5 oligonucleotide at 5'-S3G5 oligonucleotide to compound stoichiometry ratio of 1:3 by fluorescence anisotropy assay. The settings on record: Human immunodeficiency virus 1. In kind it is nucleic-acid assay.
Data set [22] concerns Human immunodeficiency virus 1. Kind of data set: Binding affinity to HIV1 nucleocapsid protein (11 to 55 residues) assessed as increase in fluorescence intensity of Trp37 residue at 100 uM by fluorescence anisotropy assay.
Data set [23] has as its system Human immunodeficiency virus 1. The experiment in a line: Antiviral activity against HIV1 pNL4.3deltaenvLuc-ADA 8 pseudotyped virus infected in human U373-CD4-CCR5 cells assessed as reduction in viral infection measured after 48 hrs by luciferase assay. The data set is classed as functional, organism-based. The settings on record: Human immunodeficiency virus 1, 48 h.

Data set [24] concerns cTAR DNA. Kind of data set: Inhibition of annealing of HIV1 Rh6G5'-cTAR DNA-3'-Dabcyl/unlabeled dTAR at 4 uM after 25 hrs by spectrofluorimetry analysis. The data set is classed as nucleic-acid assay. Particulars: Human immunodeficiency virus 1.
Data set [25] relates to Human immunodeficiency virus 1. The experiment in a line: Binding affinity to HIV1 nucleocapsid protein (11 to 55 residues) assessed as change in fluorescence intensity of Trp37 residue up to 10 uM by fluorescence anisotropy assay.

Consider `CCc1c(CNCc2ccc[nH]2)c(CC)c(CNCc2ccc[nH]2)c(CC)c1CNCc1ccc[nH]1`, for which the pIC50 at cTAR DNA [1] was 3.82.
The same measure, in the same setting: then `CCc1c(CNCCNCc2ccc[nH]2)c(CC)c(CNCCNCc2ccc[nH]2)c(CC)c1CNCCNCc1ccc[nH]1`, with 4.24.
On the same count and under the same terms, under `c1c[nH]c(CNCc2cc(CNCc3ccc[nH]3)c(CNCc3ccc[nH]3)c(CNCc3ccc[nH]3)c2)c1` stands 3.89; under `c1c[nH]c(CNCc2ccc(CNCc3ccc[nH]3)c3c(CNCc4ccc[nH]4)ccc(CNCc4ccc[nH]4)c23)c1`, 5.00; under `CCc1c(CNCc2ccc[nH]2)c(CC)c2c(CC)c1CNCc1ccc([nH]1)CNCc1c(CC)c(CNCc3ccc[nH]3)c(CC)c(c1CC)CNCc1ccc([nH]1)CNC2`, 4.77.
Turning to `c1c[nH]c(CNCc2c(CNCc3ccc[nH]3)c(CNCc3ccc[nH]3)c(CNCc3ccc[nH]3)c(CNCc3ccc[nH]3)c2CNCc2ccc[nH]2)c1`, the pIC50 at cTAR DNA [1] was 4.28.
As to `CCc1c(CN[C@H]2CCCC[C@@H]2NCc2ccc[nH]2)c(CC)c(CN[C@H]2CCCC[C@@H]2NCc2ccc[nH]2)c(CC)c1CN[C@H]1CCCC[C@@H]1NCc1ccc[nH]1`, the pIC50 at cTAR DNA [1] is 4.03.
With `CCc1c(CN)c(CC)c2c(CC)c1CNCc1ccc([nH]1)CNCc1c(CC)c(CN)c(CC)c(c1CC)CNCc1ccc([nH]1)CNC2`, the pIC50 at cTAR DNA [1] was 5.31.
Regarding `CCc1c(CN[C@@H]2CCCC[C@H]2N)c(CC)c2c(CC)c1CN[C@@H]1CCCC[C@H]1NCc1ccc([nH]1)CN[C@@H]1CCCC[C@H]1NC2`, on cTAR DNA [1], the pIC50 is 4.22.
Consider `CCc1c(CN)c(CC)c2c(CC)c1CNCc1ccc([nH]1)CNCc1c(CC)c(CNCc3ccc[nH]3)c(CC)c(c1CC)CNCc1ccc([nH]1)CNC2`, for which the pIC50 in [2] is 4.87; in [18], 4.82; on cTAR DNA [1], 5.36; in data set [23], 5.74. For the same compound, the pKd was 5.70 at cTAR DNA [3], 6.64 at cTAR DNA [4] and 6.59 on ssDNA [10]. Moreover, the figures for the Kapp in the data set with ssDNA [5] and in the data set on ssDNA [6] were 12 µM and 1.5 µM, respectively. Further, the outcome (in the data set with cTAR DNA [7]; with cTAR DNA [20]; in data set [22]) was Active. The inhibition with PBS RNA [8], in the data set with PBS RNA [11] and in the data set on cTAR DNA [12] was 100% throughout. The solubility entry in data set [9] is given as “Soluble”. The result (in the data set on PBS RNA [13]; in data set [16]; in the data set on cTAR DNA [17]; in data set [25]) was inactive. The Activity entry in the data set on ssDNA [14] is “Dose-dependent effect”. In data set [15], the selectivity ratio was 8. Further, the CC50 at 120 h in [19] came to 24 µM. Moreover, the K in the data set on ssDNA [21] was 0.6 µM. In the data set on cTAR DNA [24], the inhibition entry was “Active”.
With `CCc1c2c(CC)c(CN[C@H]3CCCC[C@@H]3N)c(CC)c1CN[C@H]1CCCC[C@@H]1NCc1ccc([nH]1)CN[C@H]1CCCC[C@@H]1NC2`, the negative-log IC50 (pIC50) at cTAR DNA [1] was 4.20.
As to `CCc1c(CN[C@@H]2CCCC[C@H]2NCc2ccc[nH]2)c(CC)c(CN[C@@H]2CCCC[C@H]2NCc2ccc[nH]2)c(CC)c1CN[C@@H]1CCCC[C@H]1NCc1ccc[nH]1`, the pIC50 at cTAR DNA [1] was 4.02.

For orientation: pIC50 means the negative decadic logarithm of the IC50, by convention in mol/L. For orientation: pKd means the negative decadic logarithm of the Kd, by convention in mol/L. One may read the inhibition as the change of the read-out against control, counted positive when it falls. As usually defined, the CC50 is the concentration at which the toxic effect on the cells reaches its halfway point.
